Results published in ChEMBL document CHEMBL1909046, “DrugMatrix in vitro pharmacology data”.

What was measured:
[1] = target: Aldo-keto reductase family 1 member B1 (Rattus norvegicus, UniProt P07943); experiment: biochemical; type: tissue-based, Lens of camera-type eye;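 also: inhibition of aldose reductase enzyme activity, measured with DL-glyceraldehyde as the substrate; in other assays of this panel Not Active means under 50% inhibition at 10 µM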
[2] = target: Vascular endothelial growth factor receptor 1 (Homo sapiens, UniProt P17948); experiment: biochemical; type: cell-based, HUVEC; conditions: huvec; also: in other assays of this panel Not Active means under 50% inhibition at 10 µM
Sequence of Vascular endothelial growth factor receptor 1 (P17948 whole entry): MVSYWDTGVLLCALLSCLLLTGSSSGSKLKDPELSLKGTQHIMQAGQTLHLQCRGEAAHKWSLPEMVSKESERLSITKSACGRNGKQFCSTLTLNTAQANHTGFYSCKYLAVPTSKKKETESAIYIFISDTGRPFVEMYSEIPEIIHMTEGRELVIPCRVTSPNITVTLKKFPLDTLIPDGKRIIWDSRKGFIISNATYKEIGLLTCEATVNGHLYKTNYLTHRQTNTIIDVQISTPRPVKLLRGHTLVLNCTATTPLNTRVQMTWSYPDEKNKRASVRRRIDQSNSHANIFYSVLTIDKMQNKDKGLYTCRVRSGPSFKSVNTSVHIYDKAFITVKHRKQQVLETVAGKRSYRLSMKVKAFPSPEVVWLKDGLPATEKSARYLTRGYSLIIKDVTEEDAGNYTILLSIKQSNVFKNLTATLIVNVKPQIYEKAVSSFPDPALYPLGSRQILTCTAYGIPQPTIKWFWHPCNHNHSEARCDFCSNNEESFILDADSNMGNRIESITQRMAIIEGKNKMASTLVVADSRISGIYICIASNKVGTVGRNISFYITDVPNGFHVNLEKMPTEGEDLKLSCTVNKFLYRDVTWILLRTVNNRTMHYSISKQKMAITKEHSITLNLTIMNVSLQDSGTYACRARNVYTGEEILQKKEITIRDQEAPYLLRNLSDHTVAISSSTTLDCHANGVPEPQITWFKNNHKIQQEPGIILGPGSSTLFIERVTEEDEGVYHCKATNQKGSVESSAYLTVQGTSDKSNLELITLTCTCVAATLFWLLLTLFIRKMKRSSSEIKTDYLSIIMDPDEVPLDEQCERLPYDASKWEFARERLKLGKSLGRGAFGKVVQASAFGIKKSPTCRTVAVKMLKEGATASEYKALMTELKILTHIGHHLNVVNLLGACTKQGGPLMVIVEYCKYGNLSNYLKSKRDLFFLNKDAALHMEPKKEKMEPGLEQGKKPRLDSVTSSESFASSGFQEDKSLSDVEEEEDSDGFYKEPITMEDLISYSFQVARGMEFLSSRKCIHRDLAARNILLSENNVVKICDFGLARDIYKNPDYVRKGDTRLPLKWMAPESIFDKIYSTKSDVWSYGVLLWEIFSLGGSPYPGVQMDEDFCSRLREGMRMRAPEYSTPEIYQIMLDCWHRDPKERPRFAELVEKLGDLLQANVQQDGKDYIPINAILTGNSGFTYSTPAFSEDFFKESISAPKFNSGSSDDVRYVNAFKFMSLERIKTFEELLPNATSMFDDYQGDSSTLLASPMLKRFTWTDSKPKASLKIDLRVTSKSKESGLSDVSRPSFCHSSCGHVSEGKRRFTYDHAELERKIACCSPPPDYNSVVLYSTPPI

[3] = target: T1, C-X-C chemokine receptor type 2 (Homo sapiens, UniProt P25025); type: cell membranes, Membrane; conditions: cho-k1; also: in other assays of this panel Not Active means under 50% inhibition at 10 µM
T1 sequence (P25025 whole entry): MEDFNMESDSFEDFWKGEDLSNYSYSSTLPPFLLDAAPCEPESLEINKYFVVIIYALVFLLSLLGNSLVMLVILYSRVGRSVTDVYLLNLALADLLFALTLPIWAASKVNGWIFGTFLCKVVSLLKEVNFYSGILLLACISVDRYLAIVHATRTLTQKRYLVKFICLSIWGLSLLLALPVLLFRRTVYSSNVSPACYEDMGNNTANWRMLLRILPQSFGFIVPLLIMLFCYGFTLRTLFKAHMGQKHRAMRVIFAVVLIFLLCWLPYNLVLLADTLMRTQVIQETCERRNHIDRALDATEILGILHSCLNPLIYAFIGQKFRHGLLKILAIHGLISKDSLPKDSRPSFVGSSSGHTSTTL

[4] = DRUGMATRIX: Glutamate, Kainate radioligand binding (ligand: [3H] Kainic acid); type: cell membranes, Rattus norvegicus, Wistar, Brain, Membrane; conditions: Not Active = under 50% inhibition at 10 µM
[5] = target: 5-hydroxytryptamine receptor 1B (Rattus norvegicus, UniProt P28564); type: cell membranes, Wistar, Cerebral cortex, Membrane; also: in other assays of this panel Not Active means under 50% inhibition at 10 µM
Sequence of 5-hydroxytryptamine receptor 1B (P28564 whole entry): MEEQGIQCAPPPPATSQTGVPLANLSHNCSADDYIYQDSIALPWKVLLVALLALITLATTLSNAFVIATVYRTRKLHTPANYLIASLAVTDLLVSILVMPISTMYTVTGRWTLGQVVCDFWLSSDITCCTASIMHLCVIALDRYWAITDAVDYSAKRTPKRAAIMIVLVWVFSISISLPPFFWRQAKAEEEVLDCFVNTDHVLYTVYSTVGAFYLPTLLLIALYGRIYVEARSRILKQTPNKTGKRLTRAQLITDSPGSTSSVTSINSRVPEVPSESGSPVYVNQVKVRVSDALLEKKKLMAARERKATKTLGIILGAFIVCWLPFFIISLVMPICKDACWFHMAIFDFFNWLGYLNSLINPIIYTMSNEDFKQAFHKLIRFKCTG

[6] = target: T2, Adenosine receptor A3 (Homo sapiens, UniProt P0DMS8); type: cell membranes, CHO-K1, Membrane
T2 sequence (P0DMS8 whole entry): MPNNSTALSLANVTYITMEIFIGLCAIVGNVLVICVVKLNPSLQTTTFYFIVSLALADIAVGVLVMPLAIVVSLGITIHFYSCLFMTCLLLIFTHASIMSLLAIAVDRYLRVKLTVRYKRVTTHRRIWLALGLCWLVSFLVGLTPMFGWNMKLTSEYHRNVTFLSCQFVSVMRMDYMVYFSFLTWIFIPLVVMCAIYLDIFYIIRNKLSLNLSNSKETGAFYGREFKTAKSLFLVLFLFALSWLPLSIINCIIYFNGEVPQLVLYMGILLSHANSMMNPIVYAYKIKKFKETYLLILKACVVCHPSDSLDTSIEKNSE

Row | Molecule | IC50 [1] | IC50 [2] | IC50 [3] | IC50 [4] | Ki [4] | IC50 [5] | IC50 ([6]; cho-k1) | Ki [1] | Ki [2] | Ki [3] | Ki [5] | Ki ([6]; cho-k1) | IC50 ([6]; read-out: IC50) | Ki ([6]; read-out: Ki) | IC50 ([1]; read-out: IC50)
1 | CCOC(=O)[C@H](CCc1ccccc1)N[C@@H](C)C(=O)N1CCC[C@H]1C(=O)O | Not Active | Not Active | Not Active | Not Active | Not Active | Not Active | Not Active |  |  |  |  |  |  |  | 
2 | POLYVINYL ALCOHOL | Not Active | Not Active | Not Active | Not Active | Not Active | Not Active | Not Active | Not Active | Not Active | Not Active | Not Active | Not Active |  |  | 
3 | CCC[C@@H]1C[C@@H](C(=O)N[C@@H]([C@H]2O[C@H](SC)[C@H](O)[C@@H](O)[C@H]2O)[C@H](C)Cl)N(C)C1 [CLINDAMYCIN] | Not Active | Not Active | Not Active | Not Active | Not Active | Not Active | Not Active |  |  |  |  |  |  |  | 
4 | CN(Cc1cnc2nc(N)nc(N)c2n1)c1ccc(C(=O)N[C@@H](CCC(=O)O)C(=O)O)cc1 [METHOTREXATE] | Not Active | Not Active | Not Active | Not Active | Not Active | Not Active | Not Active |  |  |  |  |  |  |  | 
5 | CO[C@@]1(NC(=O)CSCC#N)C(=O)N2C(C(=O)O)=C(CSc3nnnn3C)CS[C@@H]21 [CEFMETAZOLE] | Not Active | Not Active | Not Active | Not Active | Not Active | Not Active | Not Active |  |  |  |  |  |  |  | 
6 | C[C@@H]1CC[C@H]2[C@@H](C)C(=O)O[C@@H]3O[C@@]4(C)CC[C@@H]1[C@]32OO4 [ARTEMISININ] | Not Active | Not Active | Not Active | Not Active | Not Active | Not Active | Not Active |  |  |  |  |  |  |  | 
7 | CC(C(=O)O)c1ccc(CC2CCCC2=O)cc1 (centres undefined) [LOXOPROFEN] | Not Active | Not Active | Not Active | Not Active | Not Active | Not Active | Not Active |  |  |  |  |  |  |  | 
8 | CCCCCC[C@H]1C(=O)O[C@H](C)[C@H](NC(=O)c2cccc(NC=O)c2O)C(=O)O[C@@H](C)[C@@H]1OC(=O)CC(C)C [ANTIMYCIN A] | Not Active | Not Active | Not Active | Not Active | Not Active | Not Active | Not Active |  |  |  |  |  |  |  | 
9 | C#C[C@]1(O)CC[C@H]2[C@@H]3CCc4cc(O)ccc4[C@H]3CC[C@@]21C [ETHINYL ESTRADIOL] | Not Active | Not Active | Not Active | Not Active | Not Active | Not Active |  |  |  |  |  |  | 32900 nM | 18600 nM | 
10 | CC[C@H]1OC(=O)[C@H](C)[C@@H](O[C@H]2C[C@@](C)(OC)[C@@H](O)[C@H](C)O2)[C@H](C)[C@@H](O[C@@H]2O[C@H](C)C[C@H](N(C)C)[C@H]2O)[C@](C)(O)C[C@@H](C)CN(C)[C@H](C)[C@@H](O)[C@]1(C)O [AZITHROMYCIN] | Not Active | Not Active | Not Active | Not Active | Not Active | Not Active | Not Active |  |  |  |  |  |  |  | 
11 | COc1ccc2cc(CCC(C)=O)ccc2c1 [NABUMETONE] | Not Active | Not Active | Not Active | Not Active | Not Active | Not Active | Not Active |  |  |  |  |  |  |  | 
12 | CCCCC1C(=O)N(c2ccccc2)N(c2ccccc2)C1=O [PHENYLBUTAZONE] | Not Active | Not Active | Not Active | Not Active | Not Active | Not Active | Not Active |  |  |  |  |  |  |  | 
13 | C=C1/C(=C\C=C2/CCC[C@]3(C)[C@@H]([C@H](C)CCCC(C)C)CC[C@@H]23)C[C@@H](O)C[C@@H]1O [ALFACALCIDOL] | Not Active | Not Active | Not Active | Not Active | Not Active | Not Active | Not Active |  |  |  |  |  |  |  | 
14 | NC(=O)N1c2ccccc2C=Cc2ccccc21 [CARBAMAZEPINE] | Not Active | Not Active | Not Active | Not Active | Not Active | Not Active | Not Active |  |  |  |  |  |  |  | 
15 | COc1ccc(Cc2nccc3cc(OC)c(OC)cc23)cc1OC [PAPAVERINE] | Not Active | Not Active | Not Active | Not Active | Not Active | Not Active | Not Active |  |  |  |  |  |  |  | 
16 | CNC(=C[N+](=O)[O-])NCCSCc1csc(CN(C)C)n1 [NIZATIDINE] | Not Active | Not Active | Not Active | Not Active | Not Active | Not Active | Not Active |  |  |  |  |  |  |  | 

Row | Molecule | IC50 [1] | IC50 [2] | IC50 [3] | IC50 [4] | Ki [4] | IC50 [5] | IC50 ([6]; cho-k1) | Ki [1] | Ki [2] | Ki [3] | Ki [5] | Ki ([6]; cho-k1) | IC50 ([6]; read-out: IC50) | Ki ([6]; read-out: Ki) | IC50 ([1]; read-out: IC50)
17 | COc1ccccc1OCC(O)CO (centres undefined) [GUAIFENESIN] | Not Active | Not Active | Not Active | Not Active | Not Active | Not Active | Not Active |  |  |  |  |  |  |  | 
18 | O=C(c1ccccc1Cl)N1CCC(Cc2ccccc2)CC1 | Not Active | Not Active | Not Active | Not Active | Not Active | Not Active | Not Active |  |  |  |  |  |  |  | 
19 | Cc1cccc(Nc2cc(Cl)nc(SCC(=O)O)n2)c1C [PIRINIXIC ACID] |  | Not Active | Not Active | Not Active | Not Active | Not Active | Not Active |  |  |  |  |  |  |  | 2820 nM
20 | CC(CCc1ccc(O)cc1)NCCc1ccc(O)c(O)c1 (centres undefined) [DOBUTAMINE] | Not Active | Not Active | Not Active | Not Active | Not Active | Not Active | Not Active |  |  |  |  |  |  |  | 
21 | CC(C)(Sc1cc(C(C)(C)C)c(O)c(C(C)(C)C)c1)Sc1cc(C(C)(C)C)c(O)c(C(C)(C)C)c1 [PROBUCOL] | Not Active | Not Active | Not Active | Not Active | Not Active | Not Active | Not Active |  |  |  |  |  |  |  | 
22 | C/C=C\c1ccc(O)c(OC)c1 [ISOEUGENOL] | Not Active | Not Active | Not Active | Not Active | Not Active | Not Active | Not Active |  |  |  |  |  |  |  | 
23 | [N-]=[N+]=CC(=O)OC[C@H](N)C(=O)O [AZASERINE] | Not Active | Not Active | Not Active | Not Active | Not Active | Not Active | Not Active |  |  |  |  |  |  |  | 
24 | CCOC(=O)C1=C(C)NC(C)=C(C(=O)OC)C1c1cccc(Cl)c1Cl (centres undefined) [FELODIPINE] | Not Active | Not Active | Not Active | Not Active | Not Active | Not Active |  |  |  |  |  |  | 1060 nM | 597 nM | 
25 | C[C@H](C(=O)O)c1cccc(C(=O)c2ccccc2)c1 [DEXKETOPROFEN] | Not Active | Not Active | Not Active | Not Active | Not Active | Not Active | Not Active |  |  |  |  |  |  |  | 
26 | Cc1cn[nH]c1 [FOMEPIZOLE] | Not Active | Not Active | Not Active | Not Active | Not Active | Not Active | Not Active |  |  |  |  |  |  |  | 
27 | O=c1cc(-c2ccccc2)oc2ccc3ccccc3c12 [BETA-NAPHTHOFLAVONE] | Not Active | Not Active | Not Active | Not Active | Not Active | Not Active | Not Active |  |  |  |  |  |  |  | 
28 | Cc1c(N(C)CS(=O)(=O)[O-])c(=O)n(-c2ccccc2)n1C.[Na+] [DIPYRONE SODIUM] | Not Active | Not Active | Not Active | Not Active | Not Active | Not Active | Not Active |  |  |  |  |  |  |  | 
29 | CN1C(=O)CN=C(c2ccccc2)c2cc(Cl)ccc21 [DIAZEPAM] | Not Active | Not Active | Not Active | Not Active | Not Active | Not Active | Not Active |  |  |  |  |  |  |  | 
30 | CO[C@H]1[C@@H](O)[C@H](N)[C@@H](O[C@H]2O[C@H]([C@H](C)N)CC[C@H]2N)[C@H](O)[C@@H]1N(C)C(=O)CN [ASTROMICIN] | Not Active | Not Active | Not Active | Not Active | Not Active | Not Active | Not Active |  |  |  |  |  |  |  | 
31 | CCn1cc(C(=O)O)c(=O)c2cc(F)c(N3CCNCC3)nc21 [ENOXACIN] | Not Active | Not Active | Not Active | Not Active | Not Active | Not Active | Not Active |  |  |  |  |  |  |  | 
